Test results taken from patent US9682126B2, “Postprandial gastrokinetic agent” (ZERIA PHARMACEUTICAL CO., LTD., priority 2013, dated 2017).
Like-named read-outs stand apart in the source and are kept apart here. Ends that are not written are not given here. * marks the point of attachment. Octanoyl = CCCCCCCC(=O)*

Tests used:
subjects = settings: cited from earlier work
[1] = test system: isolated stomach of Suncus murinus; settings: ghrelin alone, even at a high dose, in vitro; cited from earlier work
Suncus murinus [2] = assay: Postprandial motility by co-administration of ghrelin and motilin, ΔMI (Example 3); type: in vivo
Experimental: Each of Suncus motilin (Scrum Inc., Tokyo, Japan) and human ghrelin (Asubio Pharma Co., Ltd., Hyogo, Japan) was dissolved in PBS containing 0.1% bovine serum albumin.
Suncus murinus (male, outbred KAT strain, 7 to 39 weeks old, 56 to 91 g) was used for the experiment. The Each animal was bred in a plastic cage provided with an empty can as a nest box under the following conditions: temperature at 23±2° C., illumination between 8:00 and 20:00, and free intake of commercial trout feed (SP, Nippon Formula Feed Mfg Co., Ltd., Yokohama, Japan).
After 3 hours of fasting, Suncus murinus was anesthetized by an intraperitoneal injection of pentobarbital sodium (50 mg/kg). Through a midline incision, the stomach was exposed outside the body, and a force transducer was fixed via suture in the circular muscle direction of the body of stomach. The wire extending from the force transducer was inserted through the abdominal wall, passed under the skin, and exposed at the back of the neck.
An intravenous catheter was inserted in the right jugular, and extracorporeally fixed to the back. The catheter was filled with heparinized saline (100 units/mL) to prevent clotting.
Each of the operated Suncus murinus was allowed to recover for several days.
Drug administration and measurement of gastric motility were performed in the conscious, free-moving state without anesthesia.
2 g of feed was given to each Suncus murinus fastened (for 8 to 10 hours) for 10 minutes. After the intake of feed for 10 minutes, ghrelin (50, 1,000, or 3,000 ng/kg), motilin (300, 500, 1,000, or 3,000 ng/kg), or a mixed solution of ghrelin (15 or 50 ng/kg) and motilin (100, 200, or 300 ng/kg) was intravenously administered through a jugular vein catheter rapidly.
Amplified analog signals were converted into digital signals by an analog-to-digital converter (ADC-20, Pico Technology Ltd, St Neots, UK), and the digital signals were recorded on a computer.
Phase III contractions of MMC in conscious Suncus murinus were defined on the basis of those in dogs and humans (that is, clustered contractions with an amplitude of 8 g or more that lasts for 5 minutes or more).
Gastric motility was quantitated using a motility index (ΔMI). A motility index (ΔMI) based on a drug was calculated using the following equation. ΔMI (%)=(A−C)/B×100 A: AUC of contractions for 10 minutes during which the drug was administered B: AUC of 10-minute spontaneous phase III contractions appeared before administration of the drug C: (AUC of contractions appeared for 5 minutes between 5 and 10 minutes after the intake of feed)×2 (2) Results (FIG. 9) A. Action of Ghrelin Alone

Suncus murinus [3] = assay: Gastric motility in interdigestive period, sham-operated vs vagotomized (Example 2); type: in vivo; settings: for amplitude of spontaneous phase II contractions: ghrelin 0.1, 0.3, 1, 3, or 10 μg/kg/min iv over 10 minutes in phase II
Experimental: Each of Suncus motilin (Scrum Inc., Tokyo, Japan) and human ghrelin (Asubio Pharma Co., Ltd., Hyogo, Japan) were dissolved in PBS containing 0.1% bovine serum albumin. Suncus murinus (male, outbred KAT strain, 7 to 15 weeks old, 60 to 100 g) was used for the experiment. Each animal was bred in a plastic cage provided with an empty can as a nest box under the following conditions: temperature at 23±2° C., illumination between 8:00 and 20:00, and free intake of commercial trout feed (SP, Nippon Formula Feed Mfg Co., Ltd., Yokohama, Japan). After 3 hours of fasting, Suncus murinus was anesthetized by an intraperitoneal injection of pentobarbital sodium (50 mg/kg). Through a midline incision, the stomach was exposed outside the body, and a force transducer was fixed via suture in the circular muscle direction of the body of stomach. The wire extending from the force transducer was inserted through the abdominal wall, passed under the skin, and exposed at the back of the neck. Thereafter, truncal vagotomy was performed. A lower portion of the esophagus was exposed, both branches of the vagus nerve were isolated, and about 3 mm of the vagus nerve was excised above the hepatic branch and the celiac branch. For sham-operated Suncus murinus, the vagus nerve was exposed, but not excised. An intravenous catheter was inserted in the right jugular, and extracorporeally fixed to the back. The catheter was filled with heparinized saline (100 units/mL) to prevent clotting. From 2 days after the operation, the gastric motility was recorded. Administration of motilin was initiated 10 minutes after completion of spontaneous phase III. Synthesized suncus motilin was continuously injected at 50 ng/kg/min over 10 minutes, and the continuously injected amount was 50 μL/100 g BW/min. Administration of ghrelin was initiated 10 minutes after completion of spontaneous phase II. […] Amplified analog signals were converted into digital signals by an analog-to-digital converter (ADC-20, Pico Technology Ltd, St Neots, UK), and the digital signals were recorded on a computer. Phase III contractions of MMC in conscious Suncus murinus were defined on the basis of those in dogs and humans (that is, clustered contractions with an amplitude of 8 g or more that lasts for 5 minutes or more). Gastric motility was quantitated using a motility index (MI). A motility index (MI) based on a drug was calculated using the following equation. MI (%)=A/B×100 A: AUC of contractions for 10 minutes during which the drug was administered B: […] Statistical analysis After ANOVA, Student's t test was performed.

Suncus murinus [4] = assay: Postprandial gastric motility, force transducer on stomach, motility index MI (Example 1); type: in vivo; settings: ghrelin 50 ng/kg iv after 10-min feed intake
Experimental: Effects of administration of each of ghrelin and motilin and co-administration of ghrelin and motilin on postprandial gastric motility in Suncus murinus were studied. Each of Suncus motilin (Scrum Inc., Tokyo, Japan) and human ghrelin (Asubio Pharma Co., Ltd., Hyogo, Japan) was dissolved in phosphate buffered saline (PBS) containing 0.1% bovine serum albumin. Suncus murinus (male, outbred KAT strain, 8 to 9 weeks old, 73 to 90 g) was used for the experiment. Each animal was bred in a plastic cage provided with an empty can as a nest box under the following conditions: temperature at 23±2° C., illumination between 8:00 and 20:00, and free intake of commercial trout feed (SP, Nippon Formula Feed Mfg Co., Ltd., Yokohama, Japan). After 3 hours of fasting, Suncus murinus was anesthetized by an intraperitoneal injection of pentobarbital sodium (50 mg/kg). Through a midline incision, the stomach was exposed outside the body, and a force transducer was fixed via suture in the circular muscle direction of the body of stomach. […] Amplified analog signals were converted into digital signals by an analog-to-digital converter (ADC-20, Pico Technology Ltd, St Neots, UK), and the digital signals were recorded on a computer. […] Gastric motility was quantitated using a motility index (MI). A motility index (MI) based on a drug was calculated using the following equation. […]

[5] = ghrelin 50 ng/kg iv after feed intake
[6] = ghrelin 1,000 ng/kg iv after feed intake
[7] = ghrelin 3,000 ng/kg iv after feed intake

| Compound | gastric emptying (subjects; mitemcinal administered to fasting subjects) | gastric contractions [1] | Motility Index (ΔMI) (Suncus murinus [2]; [5]) | contractions of the body of the stomach (Suncus murinus [2]; [5]) | Motility Index (ΔMI) (Suncus murinus [2]; [6]) | contractions of the body of the stomach (Suncus murinus [2]; [6]) | Motility Index (ΔMI) (Suncus murinus [2]; [7]) | contractions of the body of the stomach (Suncus murinus [2]; [7]) | gastric emptying (subjects; continuous intravenous or massive administration of ghrelin after food intake, healthy subjects and patients with diabetes) | MI during administration of ghrelin, sham-operated compared with vagotomized (Suncus murinus [3]; phase II of MMC, fasted) | amplitude of spontaneous phase II contractions (Suncus murinus [3]; sham-operated) | amplitude of spontaneous phase II contractions (Suncus murinus [3]; vagotomized) | contractions of the body of the stomach (Suncus murinus [4]) |
| --- | --- | --- | --- | --- | --- | --- | --- | --- | --- | --- | --- | --- | --- |
| CC[C@H]1OC(=O)[C@H](C)[C@@H](O[C@H]2C[C@@](C)(OC)[C@@H](O)[C@H](C)O2)[C@H](C)[C@@H](O[C@@H]2O[C@H](C)C[C@H](N(C)C(C)C)[C@H]2O)[C@@]2(C)CC(C)=C(O2)[C@H](C)C(=O)[C@]1(C)OC [mitemcinal] | enhances gastric emptying | – | – | – | – | – | – | – | – | – | – | – | – |
| ghrelin: human ghrelin (Asubio Pharma); 28-amino acid residue peptide, hydroxyl group of serine at position 3 esterified by octanoic acid (GSS(Octanoyl)FLSPEHQRVQQRKESKKPPAKLQPR; UniProt Q9UBU3 24-51, looked up) | – | does not accelerate gastric contractions | About 2.8% | did not induce contractions of the body of the stomach | About 7.6% | did not induce contractions of the body of the stomach | About 0.03% | did not induce contractions of the body of the stomach | accelerates gastric emptying | higher | amplified the amplitude of spontaneous phase II contractions | did not change the amplitude of spontaneous phase II contractions | did not induce contractions of the body of the stomach |
